Measured values taken from ChEMBL document CHEMBL1156596, “Overcoming undesirable CYP1A2 inhibition of pyridylnaphthalene-type aldosterone synthase inhibitors: influence of heteroaryl derivatization on potency and selectivity” (J Med Chem, 2008).

Legend:
[1] = Plasma concentration in Wistar rat plasma at 5 mg/kg, po after 1 hr; type: ADME, organism-based; design: dose 5 mg/kg, route oral
[2] = Plasma concentration in Wistar rat plasma at 5 mg/kg, po after 24 hrs; type: ADME, organism-based; design: dose 5 mg/kg, route oral
in vivo = settings: Wistar, rat, plasma, po, 5 mg/kg
[3] = Plasma concentration in Wistar rat plasma at 5 mg/kg, po after 6 hrs; type: ADME, organism-based; design: dose 5 mg/kg, route oral
Cytochrome P450 3A4 = Cytochrome P450 3A4 (Homo sapiens, UniProt P08684); test: Inhibition of human recombinant CYP3A4 expressed in insect microsomes; type: ADME, Microsome
Sequence of Cytochrome P450 3A4 (P08684 whole entry): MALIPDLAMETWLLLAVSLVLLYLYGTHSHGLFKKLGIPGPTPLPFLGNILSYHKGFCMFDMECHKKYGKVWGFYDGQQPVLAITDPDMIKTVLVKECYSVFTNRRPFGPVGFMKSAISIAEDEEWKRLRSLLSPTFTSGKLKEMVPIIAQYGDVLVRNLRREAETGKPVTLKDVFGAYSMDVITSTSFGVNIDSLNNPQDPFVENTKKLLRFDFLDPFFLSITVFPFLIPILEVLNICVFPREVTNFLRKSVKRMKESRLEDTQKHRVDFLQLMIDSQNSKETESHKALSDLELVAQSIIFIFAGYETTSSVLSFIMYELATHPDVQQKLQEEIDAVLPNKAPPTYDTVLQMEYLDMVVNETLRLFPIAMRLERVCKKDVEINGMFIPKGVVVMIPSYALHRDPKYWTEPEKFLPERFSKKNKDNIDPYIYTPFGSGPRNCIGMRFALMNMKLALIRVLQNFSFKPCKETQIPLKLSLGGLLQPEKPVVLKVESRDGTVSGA

CYP1A2 = molecular target: T1, CYP1A2 (Homo sapiens, UniProt P05177); test: Inhibition of human recombinant CYP1A2 expressed in insect microsomes at 2 uM; type: ADME, Microsome
T1 sequence (P05177 whole entry): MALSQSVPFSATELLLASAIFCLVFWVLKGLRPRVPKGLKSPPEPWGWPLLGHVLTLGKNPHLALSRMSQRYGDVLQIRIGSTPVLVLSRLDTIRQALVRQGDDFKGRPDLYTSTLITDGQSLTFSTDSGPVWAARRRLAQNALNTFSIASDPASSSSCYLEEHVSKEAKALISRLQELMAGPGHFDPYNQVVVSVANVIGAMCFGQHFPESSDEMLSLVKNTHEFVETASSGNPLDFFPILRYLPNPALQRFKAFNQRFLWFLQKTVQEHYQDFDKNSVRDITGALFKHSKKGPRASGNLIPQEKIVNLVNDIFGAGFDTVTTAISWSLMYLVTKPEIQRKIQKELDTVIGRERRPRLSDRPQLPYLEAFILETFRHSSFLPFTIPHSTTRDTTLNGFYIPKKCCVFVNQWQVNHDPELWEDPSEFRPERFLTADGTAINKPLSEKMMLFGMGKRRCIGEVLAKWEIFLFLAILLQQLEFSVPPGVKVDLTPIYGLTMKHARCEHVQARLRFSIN

Cytochrome P450 2D6 = Cytochrome P450 2D6 (Homo sapiens, UniProt P10635); test: Inhibition of human recombinant CYP2D6 expressed in insect microsomes; type: ADME, Microsome
Sequence of Cytochrome P450 2D6 (P10635 whole entry): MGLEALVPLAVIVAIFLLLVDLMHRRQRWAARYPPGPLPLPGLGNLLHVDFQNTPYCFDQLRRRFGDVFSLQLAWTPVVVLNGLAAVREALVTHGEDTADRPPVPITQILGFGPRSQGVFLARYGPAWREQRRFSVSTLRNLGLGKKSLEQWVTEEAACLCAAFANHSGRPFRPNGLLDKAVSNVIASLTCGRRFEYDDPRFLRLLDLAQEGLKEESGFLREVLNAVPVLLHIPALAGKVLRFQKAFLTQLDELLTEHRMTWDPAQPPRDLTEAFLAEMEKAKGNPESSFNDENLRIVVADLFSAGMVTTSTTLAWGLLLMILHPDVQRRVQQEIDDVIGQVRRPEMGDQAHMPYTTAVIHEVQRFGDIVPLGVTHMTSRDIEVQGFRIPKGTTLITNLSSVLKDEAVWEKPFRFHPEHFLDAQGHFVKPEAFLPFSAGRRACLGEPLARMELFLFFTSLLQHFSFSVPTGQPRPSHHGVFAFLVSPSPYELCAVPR

Homo sapiens = species: Homo sapiens; test: Selectivity ratio of IC50 for human CYP11B1 to IC50 for human CYP11B2
[4] = Tmax in Wistar rat at 5 mg/kg, po; type: ADME, organism-based; design: dose 5 mg/kg, route oral; settings: in vivo
CYP19 (aromatase) = molecular target: T2, CYP19 (aromatase) (Homo sapiens, UniProt P11511); test: Inhibition of human placental CYP19 at 500 nM
T2 sequence (P11511 whole entry): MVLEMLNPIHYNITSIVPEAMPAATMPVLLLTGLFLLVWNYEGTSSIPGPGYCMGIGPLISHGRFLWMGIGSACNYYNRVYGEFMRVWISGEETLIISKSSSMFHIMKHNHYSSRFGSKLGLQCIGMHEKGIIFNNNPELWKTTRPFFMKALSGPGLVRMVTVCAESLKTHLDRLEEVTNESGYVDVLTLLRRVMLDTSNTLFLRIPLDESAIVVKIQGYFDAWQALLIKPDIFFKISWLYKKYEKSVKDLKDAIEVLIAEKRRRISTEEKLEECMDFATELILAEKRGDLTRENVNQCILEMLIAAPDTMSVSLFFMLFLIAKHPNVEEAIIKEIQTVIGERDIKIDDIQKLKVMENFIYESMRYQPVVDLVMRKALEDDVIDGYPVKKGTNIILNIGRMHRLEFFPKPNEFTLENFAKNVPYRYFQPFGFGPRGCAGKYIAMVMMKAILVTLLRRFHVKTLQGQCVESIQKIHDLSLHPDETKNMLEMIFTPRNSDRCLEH

In the case of `COc1ccc2cc(-c3cncc4ccccc34)ccc2c1`, the concentration at 1 h [1] is reported as 0.0349 µg/mL, the concentration at 24 h [2] is reported as 0.00128 µg/mL and the AUC(0-inf) (in vivo) is reported as 0.762 µg·h/mL. The concentration at 6 h [3] was 0.0814 µg/mL, the IC50 (Cytochrome P450 3A4) was 3.54 µM and the inhibition at 2 µM (CYP1A2) was 57%. It also gave an IC50 (Cytochrome P450 2D6) of 33.1 µM, a Ratio IC50 (Homo sapiens) of 112 and a Tmax [4] of 6 h. The inhibition at 0.5 µM (CYP19 (aromatase)) was 7%.
